Measured values taken from ChEMBL document CHEMBL1201862, “PubChem BioAssay data set” (2004).
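Interpolation was linear, between the two tested concentrations surrounding the appropriate level; five concentrations were tested over 48 hours in 96-well plates. GI50 marks 50% less growth.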 Activity calls are given as the source filed them. No stated cut-off is given here; in the data, active = GI50 up to about 1.1 µM and inactive = higher.

Assays:
Experiment in all cases: growth of human tumour cells (NCI), 48 h
A549 = tested on: A549
CAKI-1 = tested on: CAKI-1
DU-145 = tested on: DU-145
EKVX = tested on: EKVX
HOP-62 = tested on: HOP-62
IGROV-1 = tested on: IGROV-1
LOX IMVI = tested on: LOX IMVI
MDA-MB-231 = tested on: MDA-MB-231
Malme-3M = tested on: Malme-3M
NCI-H23 = tested on: NCI-H23
NCI/ADR-RES = tested on: NCI/ADR-RES
OVCAR-3 = tested on: OVCAR-3
OVCAR-5 = tested on: OVCAR-5
PC-3 = tested on: PC-3
SF-539 = tested on: SF-539
SNB-75 = tested on: SNB-75
TK-10 = tested on: TK-10
UACC-62 = tested on: UACC-62
UO-31 = tested on: UO-31
Hs-578T = tested on: Hs-578T

Measured: GI50

CC(C)N1CCCOC(c2ccc([N+](=O)[O-])cc2)O1 (stereo not given)
inactive: A549 > 100 µM | CAKI-1 > 100 µM | DU-145 > 100 µM | EKVX > 100 µM | HOP-62 > 100 µM | IGROV-1 > 100 µM | LOX IMVI > 100 µM | MDA-MB-231 > 100 µM | Malme-3M > 100 µM | NCI-H23 > 100 µM | NCI/ADR-RES > 100 µM | OVCAR-3 > 100 µM | OVCAR-5 > 100 µM | PC-3 > 100 µM | SF-539 > 100 µM | SNB-75 > 100 µM | TK-10 > 100 µM | UACC-62 > 100 µM | UO-31 > 100 µM

COC(=O)/C=C/COCC1C2CCC(=O)C21 (stereo not given)
inactive: A549 > 100 µM | CAKI-1 27.4 µM | DU-145 > 100 µM | EKVX > 100 µM | HOP-62 > 100 µM | IGROV-1 > 100 µM | LOX IMVI > 100 µM | MDA-MB-231 > 100 µM | Malme-3M > 100 µM | NCI-H23 > 100 µM | NCI/ADR-RES > 100 µM | OVCAR-3 > 100 µM | OVCAR-5 > 100 µM | PC-3 > 100 µM | SF-539 > 100 µM | SNB-75 > 100 µM | TK-10 > 100 µM | UACC-62 > 100 µM | UO-31 > 100 µM

C(=C\c1ccccc1)/Cn1nc(-c2ccccc2)nc1-c1cnccn1
inactive: A549 > 100 µM | DU-145 > 100 µM | EKVX > 100 µM | HOP-62 > 100 µM | IGROV-1 > 100 µM | LOX IMVI > 100 µM | MDA-MB-231 > 100 µM | NCI-H23 > 100 µM | OVCAR-3 > 100 µM | OVCAR-5 > 100 µM | PC-3 > 100 µM | SF-539 > 100 µM | SNB-75 18.7 µM | TK-10 > 100 µM | UACC-62 > 100 µM | UO-31 > 100 µM

CCOCN/C(N)=N\C#N
inactive: A549 > 100 µM | CAKI-1 > 100 µM | EKVX > 100 µM | HOP-62 > 100 µM | IGROV-1 > 100 µM | LOX IMVI 12.1 µM | Malme-3M > 100 µM | NCI-H23 > 100 µM | OVCAR-3 > 100 µM | OVCAR-5 > 100 µM | SF-539 > 100 µM | SNB-75 > 100 µM | TK-10 > 100 µM | UACC-62 > 100 µM | UO-31 > 100 µM

CCCN1CN(C(C(=O)N[C@@H]2C(=O)N3C(C(=O)O)=C(C)CSC23)c2ccc(O)cc2)CSC1=S (stereo not given in full)
inactive: A549 > 100 µM | CAKI-1 > 100 µM | EKVX > 100 µM | HOP-62 > 100 µM | IGROV-1 > 100 µM | LOX IMVI 76.6 µM | Malme-3M > 100 µM | NCI-H23 > 100 µM | OVCAR-3 45.5 µM | OVCAR-5 > 100 µM | SF-539 > 100 µM | SNB-75 > 100 µM | TK-10 > 100 µM | UACC-62 > 100 µM | UO-31 > 100 µM

CC(=O)NC(C)(C)C1CCC(C)=C(c2ccccc2)C1 (stereo not given)
inactive: A549 > 100 µM | DU-145 > 100 µM | EKVX > 100 µM | HOP-62 > 100 µM | IGROV-1 > 100 µM | LOX IMVI > 100 µM | MDA-MB-231 55.8 µM | NCI-H23 > 100 µM | OVCAR-3 > 100 µM | OVCAR-5 > 100 µM | PC-3 > 100 µM | SF-539 > 100 µM | SNB-75 53.6 µM | TK-10 > 100 µM | UACC-62 > 100 µM | UO-31 > 100 µM

O=C1C=CC(=O)c2c(NCC3CC3)ccc(NCC3CC3)c21
inactive: A549 47.8 µM | EKVX 29 µM | HOP-62 > 100 µM | Hs-578T 82.8 µM | IGROV-1 47.9 µM | LOX IMVI 20.7 µM | MDA-MB-231 36.1 µM | Malme-3M 19.8 µM | NCI-H23 26.4 µM | NCI/ADR-RES 64.1 µM | OVCAR-3 26.7 µM | OVCAR-5 59 µM | PC-3 46.2 µM | SF-539 25.5 µM | TK-10 > 100 µM | UACC-62 18.3 µM | UO-31 75.2 µM

CCOc1ccc(NC(=O)C(=O)C(C(=O)c2ccc3ccccc3c2)C2OC(=O)c3ccccc32)cc1 (stereo not given)
inactive: A549 20.2 µM | CAKI-1 23.8 µM | EKVX > 100 µM | HOP-62 17.5 µM | IGROV-1 17.6 µM | LOX IMVI 15.7 µM | Malme-3M 10.9 µM | NCI-H23 11.7 µM | OVCAR-3 16.2 µM | OVCAR-5 30.9 µM | SF-539 7.31 µM | SNB-75 15.7 µM | TK-10 50.7 µM | UACC-62 13.7 µM | UO-31 15.7 µM

NC1=Nc2ccccc2Sc2ccccc21
inactive: A549 > 100 µM | CAKI-1 > 100 µM | EKVX > 100 µM | HOP-62 > 100 µM | IGROV-1 > 100 µM | LOX IMVI > 100 µM | Malme-3M > 100 µM | NCI-H23 > 100 µM | OVCAR-3 > 100 µM | OVCAR-5 > 100 µM | SF-539 58.5 µM | SNB-75 16.5 µM | TK-10 > 100 µM | UACC-62 > 100 µM | UO-31 34.4 µM

O=C(C#Cc1ccccc1)NC/C=C/c1ccccc1
inactive: A549 36 µM | CAKI-1 37.2 µM | EKVX > 100 µM | HOP-62 22.8 µM | IGROV-1 55.8 µM | LOX IMVI 38.5 µM | Malme-3M 49.8 µM | NCI-H23 44.4 µM | OVCAR-3 33 µM | OVCAR-5 > 100 µM | SF-539 33.3 µM | SNB-75 17.8 µM | TK-10 47.3 µM | UACC-62 33.6 µM | UO-31 33.4 µM

Nc1nc[n+](Cc2ccccc2CCO)c2[nH]cnc12
inactive: A549 > 100 µM | CAKI-1 > 100 µM | EKVX > 100 µM | HOP-62 > 100 µM | IGROV-1 > 100 µM | LOX IMVI > 100 µM | Malme-3M > 100 µM | NCI-H23 > 100 µM | OVCAR-3 > 100 µM | OVCAR-5 > 100 µM | SF-539 > 100 µM | SNB-75 > 100 µM | TK-10 > 100 µM | UACC-62 > 100 µM | UO-31 89.3 µM

CCN(CC)c1nnc(CCCCCCCCc2nnc(N(CC)CC)o2)o1
inactive: A549 > 100 µM | CAKI-1 > 100 µM | DU-145 > 100 µM | EKVX > 100 µM | HOP-62 > 100 µM | IGROV-1 > 100 µM | LOX IMVI > 100 µM | MDA-MB-231 > 100 µM | Malme-3M > 100 µM | NCI-H23 > 100 µM | NCI/ADR-RES > 100 µM | OVCAR-3 > 100 µM | OVCAR-5 > 100 µM | PC-3 > 100 µM | SF-539 > 100 µM | SNB-75 > 100 µM | TK-10 > 100 µM | UO-31 > 100 µM
